# According to PubChem BioAssay AID196 (DTP/NCI, 2004):
# Where “and” joins values, the source holds several entries; their conditions need not be identical. Equal values may be shown once. Toxic doses and inconclusive results are not listed.
# Test system: BDF1 mice, intracerebral B16 melanoma, median survival T/C
# Assay: NCI In Vivo Anticancer Drug Screen. Data for tumor model B16 Melanoma (intracerebral) in B6D2F1 (BDF1) mice
# Conditions: endpoint: median survival time, higher = longer survival
# Procedure: The antitumor activity of compounds was measured in mice bearing transplantable tumors. Survival or tumor size were measured and the results are expressed as the measurement made in the treated group (T) divided by the measurement made in the vehicle treated control group (C). The tumor model used in this assay is B16 Melanoma (intracerebral) in B6D2F1 (BDF1) mice
# [1] = dose: 0.75 mg/kg/injection, schedule: Q01DX009 (ip), vehicle: saline
# [2] = dose: 1.5 mg/kg/injection, schedule: Q01DX009 (ip), vehicle: saline
# [3] = dose: 3.0 mg/kg/injection, schedule: Q01DX009 (ip), vehicle: saline
# [4] = dose: 6.0 mg/kg/injection, schedule: Q01DX009 (ip), vehicle: saline
smiles,measurement,setting,value
O=NN(CCCl)C(=O)NC1CCCCC1,T/C,"dose: 2.0 mg/kg/injection, schedule: Q01DX009 (ip), vehicle: Klucel (hydroxypropylcellulose) (HPC)",116 % of control
same,T/C,"dose: 2.4 mg/kg/injection, schedule: Q01DX001 (ip), vehicle: other",116 % of control
same,T/C,"dose: 4.0 mg/kg/injection, schedule: Q01DX009 (ip), vehicle: other",124 % of control
same,T/C,"dose: 4.7 mg/kg/injection, schedule: Q01DX001 (ip), vehicle: other",100 % of control
same,T/C,"dose: 7.5 mg/kg/injection, schedule: Q01DX009 (ip), vehicle: saline",118 % of control
same,T/C,"dose: 8.0 mg/kg/injection, schedule: Q01DX009 (ip), vehicle: Klucel (hydroxypropylcellulose) (HPC)",161 % of control
same,T/C,"dose: 8.0 mg/kg/injection, schedule: Q04DX003 (ip), vehicle: Klucel (hydroxypropylcellulose) (HPC)",102 % of control
same,T/C,"dose: 9.5 mg/kg/injection, schedule: Q01DX001 (ip), vehicle: other",121 % of control
same,T/C,"dose: 13.0 mg/kg/injection, schedule: Q01DX001 (ip), vehicle: other",118 % of control
same,T/C,"dose: 15.0 mg/kg/injection, schedule: Q01DX009 (ip), vehicle: saline",150 % of control
same,T/C,"dose: 16.0 mg/kg/injection, schedule: Q01DX009 (ip), vehicle: Klucel (hydroxypropylcellulose) (HPC)",154 % of control
same,T/C,"dose: 16.0 mg/kg/injection, schedule: Q01DX009 (ip), vehicle: other",118 % of control
same,T/C,"dose: 16.0 mg/kg/injection, schedule: Q01DX009 (ip), vehicle: saline with Tween-80",213 % of control
same,T/C,"dose: 16.0 mg/kg/injection, schedule: Q04DX003 (ip), vehicle: Klucel (hydroxypropylcellulose) (HPC)",102 % of control
same,T/C,"dose: 17.8 mg/kg/injection, schedule: Q01DX001 (ip), vehicle: Klucel (hydroxypropylcellulose) (HPC)",113 % of control
same,T/C,"dose: 18.9 mg/kg/injection, schedule: Q01DX001 (ip), vehicle: other",123 % of control
same,T/C,"dose: 30.0 mg/kg/injection, schedule: Q01DX009 (ip), vehicle: saline",290 % of control
same,T/C,"dose: 32.0 mg/kg/injection, schedule: Q01DX009 (ip), vehicle: Klucel (hydroxypropylcellulose) (HPC)",95 % of control
same,T/C,"dose: 32.0 mg/kg/injection, schedule: Q04DX003 (ip), vehicle: saline",220 % of control
same,T/C,"dose: 36.0 mg/kg/injection, schedule: Q01DX001 (ip), vehicle: Klucel (hydroxypropylcellulose) (HPC)",224 % of control
same,T/C,"dose: 36.0 mg/kg/injection, schedule: Q01DX001 (ip), vehicle: other",338 % of control
same,T/C,"dose: 37.8 mg/kg/injection, schedule: Q01DX001 (ip), vehicle: other",173 % of control
same,T/C,"dose: 40.0 mg/kg/injection, schedule: Q01DX001 (ip), vehicle: Klucel (hydroxypropylcellulose) (HPC)",150 % of control
same,T/C,"dose: 60.0 mg/kg/injection, schedule: Q01DX001 (ip), vehicle: Klucel (hydroxypropylcellulose) (HPC)",202 % of control and 212 % of control
same,T/C,"dose: 90.0 mg/kg/injection, schedule: Q01DX001 (ip), vehicle: Klucel (hydroxypropylcellulose) (HPC)",90 % of control
CCCCN(C)N=Nc1c(C(N)=O)n[nH]c1C,T/C,"dose: 32.0 mg/kg/injection, schedule: Q01DX005 (ip), vehicle: saline with Tween-80",121 % of control
Cc1c(N)nc([C@H](CC(N)=O)NC[C@H](N)C(N)=O)nc1C(=O)N[C@H](C(=O)N[C@H](C)[C@@H](O)[C@H](C)C(=O)N[C@H](C(=O)NCCc1nc(-c2nc(C(=O)NCCC[S+](C)C)cs2)cs1)[C@@H](C)O)C(OC1OC(CO)C(O)C(O)C1OC1OC(CO)C(O)C(OC(N)=O)C1O)c1cnc[nH]1 (some centres undefined),T/C,"dose: 4.0 mg/kg/injection, schedule: Q01DX009 (ip), vehicle: saline",110 % of control
same,T/C,"dose: 8.0 mg/kg/injection, schedule: Q01DX009 (ip), vehicle: saline",120 % of control
same,T/C,"dose: 16.0 mg/kg/injection, schedule: Q01DX009 (ip), vehicle: saline",106 % of control
O=NN(CCCl)C(=O)NC1OC(CO)C(O)C(O)C1O (centres undefined),T/C,"dose: 0.31 mg/kg/injection, schedule: Q01DX009 (ip), vehicle: saline",112 % of control
same,T/C,"dose: 0.62 mg/kg/injection, schedule: Q01DX009 (ip), vehicle: saline",109 % of control
same,T/C,"dose: 1.25 mg/kg/injection, schedule: Q01DX009 (ip), vehicle: saline",115 % of control
same,T/C,"dose: 2.5 mg/kg/injection, schedule: Q01DX009 (ip), vehicle: saline",106 % of control
same,T/C,"dose: 5.0 mg/kg/injection, schedule: Q01DX009 (ip), vehicle: saline",122 % of control
C[C@@H]1C[C@H]2[C@@H]3CCC4=CC(=O)C=C[C@]4(C)[C@@]3(F)[C@@H](O)C[C@]2(C)[C@@]1(O)C(=O)CO,T/C,[1],108 % of control
same,T/C,[2],104 % of control
same,T/C,[3],118 % of control and 104 % of control
same,T/C,[4],104 % of control and 112 % of control
same,T/C,"dose: 12.0 mg/kg/injection, schedule: Q01DX009 (ip), vehicle: saline",122 % of control
OC(C1CO1)C(O)C1CO1 (centres undefined),T/C,"dose: 0.12 mg/kg/injection, schedule: Q01DX009 (ip), vehicle: saline",100 % of control and 101 % of control
same,T/C,"dose: 0.25 mg/kg/injection, schedule: Q01DX009 (ip), vehicle: saline",122 % of control and 110 % of control
same,T/C,"dose: 0.5 mg/kg/injection, schedule: Q01DX009 (ip), vehicle: saline",94 % of control and 112 % of control
same,T/C,"dose: 1.0 mg/kg/injection, schedule: Q01DX009 (ip), vehicle: saline",120 % of control and 103 % of control
same,T/C,"dose: 2.0 mg/kg/injection, schedule: Q01DX009 (ip), vehicle: saline",123 % of control
NC(CSC(c1ccccc1)(c1ccccc1)c1ccccc1)C(=O)O (centres undefined),T/C,"dose: 32.0 mg/kg/injection, schedule: Q01DX005 (ip), vehicle: Klucel (hydroxypropylcellulose) (HPC)",105 % of control and 115 % of control
same,T/C,"dose: 64.0 mg/kg/injection, schedule: Q01DX005 (ip), vehicle: Klucel (hydroxypropylcellulose) (HPC)",105 % of control and 112 % of control
same,T/C,"dose: 128.0 mg/kg/injection, schedule: Q01DX005 (ip), vehicle: Klucel (hydroxypropylcellulose) (HPC)",117 % of control and 119 % of control
same,T/C,"dose: 256.0 mg/kg/injection, schedule: Q01DX005 (ip), vehicle: Klucel (hydroxypropylcellulose) (HPC)",124 % of control and 107 % of control
O=C1C(NCCO)=C(N2CC2)C(=O)C(NCCO)=C1N1CC1,T/C,"dose: 0.09 mg/kg/injection, schedule: Q01DX009 (ip), vehicle: saline",97 % of control
same,T/C,"dose: 0.19 mg/kg/injection, schedule: Q01DX009 (ip), vehicle: saline",103 % of control
same,T/C,"dose: 0.38 mg/kg/injection, schedule: Q01DX009 (ip), vehicle: saline",109 % of control
same,T/C,[1],100 % of control
Cc1ncc(CNC(=O)N(CCCl)N=O)c(N)n1,T/C,"dose: 12.5 mg/kg/injection, schedule: Q01DX009 (ip), vehicle: Klucel (hydroxypropylcellulose) (HPC)",179 % of control
same,T/C,"dose: 25.0 mg/kg/injection, schedule: Q01DX009 (ip), vehicle: Klucel (hydroxypropylcellulose) (HPC)",105 % of control
CC[C@H]1CN2CCc3cc(OC)c(OC)cc3[C@@H]2C[C@@H]1C[C@H]1NCCc2cc(OC)c(OC)cc21,T/C,"dose: 2.0 mg/kg/injection, schedule: Q01DX005 (ip), vehicle: Klucel (hydroxypropylcellulose) (HPC)",100 % of control and 104 % of control
same,T/C,"dose: 4.0 mg/kg/injection, schedule: Q01DX005 (ip), vehicle: Klucel (hydroxypropylcellulose) (HPC)",90 % of control and 110 % of control
same,T/C,"dose: 8.0 mg/kg/injection, schedule: Q01DX005 (ip), vehicle: Klucel (hydroxypropylcellulose) (HPC)",86 % of control and 112 % of control
CSCS(=O)C[C@H](CO)NC(=O)/C=C/c1c(C)[nH]c(=O)[nH]c1=O (some centres undefined),T/C,"dose: 0.06 mg/kg/injection, schedule: Q01DX005 (ip), vehicle: Klucel (hydroxypropylcellulose) (HPC)",97 % of control
same,T/C,"dose: 0.12 mg/kg/injection, schedule: Q01DX005 (ip), vehicle: Klucel (hydroxypropylcellulose) (HPC)",98 % of control
same,T/C,"dose: 0.25 mg/kg/injection, schedule: Q01DX005 (ip), vehicle: Klucel (hydroxypropylcellulose) (HPC)",103 % of control
same,T/C,"dose: 0.5 mg/kg/injection, schedule: Q01DX005 (ip), vehicle: Klucel (hydroxypropylcellulose) (HPC)",98 % of control
CCN(CC)c1ccc2cc3ccc(=[N+](CC)CC)cc-3oc2c1,T/C,"dose: 4.0 mg/kg/injection, schedule: Q01DX005 (ip), vehicle: saline",100 % of control
same,T/C,"dose: 4.0 mg/kg/injection, schedule: Q01DX005 (ip), vehicle: suspension in saline",93 % of control
same,T/C,"dose: 8.0 mg/kg/injection, schedule: Q01DX005 (ip), vehicle: saline",98 % of control
same,T/C,"dose: 8.0 mg/kg/injection, schedule: Q01DX005 (ip), vehicle: suspension in saline",113 % of control
COC(COC(=O)N1CCN(C=O)CC1)C1=C(N2CC2)C(=O)C(C)=C(N2CC2)C1=O (centres undefined),T/C,[1],103 % of control
same,T/C,[2],105 % of control
same,T/C,[3],114 % of control
same,T/C,[4],86 % of control
CN(C)N=Nc1ccnc2c(Cl)cccc12,T/C,"dose: 3.12 mg/kg/injection, schedule: Q01DX009 (ip), vehicle: other",110 % of control
same,T/C,"dose: 6.25 mg/kg/injection, schedule: Q01DX009 (ip), vehicle: other",116 % of control
same,T/C,"dose: 12.5 mg/kg/injection, schedule: Q01DX009 (ip), vehicle: other",110 % of control
same,T/C,"dose: 25.0 mg/kg/injection, schedule: Q01DX009 (ip), vehicle: other",108 % of control
same,T/C,"dose: 50.0 mg/kg/injection, schedule: Q01DX009 (ip), vehicle: other",112 % of control
